Data as given in US11427586B2, “1,2,4-oxadiazole derivatives as liver X receptor agonists” (NOVARTIS AG, priority 2019, dated 2022).
Where two headings read alike, the source gives them in different places.

Tests used:
SCD1 = assay: Measurement of SCD1 expression in SZ95-SCD1-HiBit cells (HiBiT assay); format: cell-based; conditions: Homo sapiens; for EC50: read-out: HiBit EC50
SZ95 sebocytes = assay: Sentinel Lipid Assay (SLA), desaturation index in SZ95 sebocytes; format: cell-based; conditions: Homo sapiens, 72 h; for EC50: read-out: SLA EC50
How it was run: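 SZ95 human sebocytes on fibronectin-coated plates, dosed 72 h at 37 °C with 1:3 dilutions from 10 μM; lipids extracted with deuterated triglyceride internal standards and quantified by LC-MS/MS (MRM) as 11 sentinel lipids. Desaturation index from elastic-net coefficients, normalized to DMSO; Amax relative to a reference LXR agonist.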

[1] = 48 h, normalized Amax based on the reference compound Amax of 100%, read-out: HiBit Normalized Amax
[2] = SZ95-SCD1-HiBit cells, 48 h, SCD1 protein production, luminescence, initial dilution 1:3 in DMSO
[3] = SZ95-SCD1-HiBit cells, 48 h, compared to reference compound, read-out: HiBit Amax
[4] = normalized Amax based on the reference compound Amax of 100%, read-out: SLA Normalized Amax
[5] = SZ95 cells, desaturation index, lowest dose used 4.6 nM
[6] = SZ95 cells, compared to reference compound, read-out: SLA Amax
[7] = 48 h, read-out: HiBit Normalized Amax

| Structure (SMILES) | Emax (SCD1; [1]) [%] | EC50 (SCD1; [2]) [nM] | Emax (SCD1; [3]) [%] | Emax (SZ95 sebocytes; [4]) [%] | EC50 (SZ95 sebocytes; [5]) [nM] | Emax (SZ95 sebocytes; [6]) [%] | Emax (SCD1; 48 h, read-out: HiBit Amax) [%] | EC50 (SCD1; 48 h) [nM] | Emax (SCD1; [7]) [%] | Emax (SZ95 sebocytes; read-out: SLA Amax) [%] | EC50 (SZ95 sebocytes) [nM] | Emax (SZ95 sebocytes; read-out: SLA Normalized Amax) [%] | EC50 (SCD1; footnote a: initial dilution for the compound 1:100 in assay medium rather than 1:3 in DMSO) [nM] |
| --- | --- | --- | --- | --- | --- | --- | --- | --- | --- | --- | --- | --- | --- |
| CC(O)CS(=O)(=O)c1ccccc1Oc1ccc(-c2noc(CN3C(=O)N(CCN4CCOCC4)C(C)(C)C3=O)n2)cc1C(F)(F)F (stereo not drawn) [Compound 52, 3-((3-(4-(2-((2-hydroxypropyl)sulfonyl)phenoxy)-3-(trifluoromethyl)phenyl)-1,2,4-oxadiazol-5-yl)methyl)-5,5-dimethyl-1-(2-morpholinoethyl)imidazolidine-2,4-dione] | 79.5 | 2.91 | 75.6 | 119 | ≤ 4.6 | 114 | – | – | – | – | – | – | – |
| CC1(C)C(=O)N(Cc2nc(-c3ccc(Oc4ccccc4S(=O)(=O)CC4CCCCO4)c(C(F)(F)F)c3)no2)C(=O)N1CCN1CCOCC1 (stereo not drawn) [Compound 53, 5,5-dimethyl-1-(2-morpholinoethyl)-3-((3-(4-(2-(((tetrahydro-2H-pyran-2-yl)methyl)sulfonyl)phenoxy)-3-(trifluoromethyl)phenyl)-1,2,4-oxadiazol-5-yl)methyl)imidazolidine-2,4-dione] | 101 | 0.264 | 96.2 | 146 | ≤ 4.6 | 140 | – | – | – | – | – | – | – |
| COCCS(=O)(=O)c1ccccc1Oc1ccc(-c2noc(CN3C(=O)N(CC4CC4)C(C)(C)C3=O)n2)cc1C(F)(F)F [Compound 54, 1-(cyclopropylmethyl)-3-((3-(4-(2-((2-methoxyethyl)sulfonyl)phenoxy)-3-(trifluoromethyl)phenyl)-1,2,4-oxadiazol-5-yl)methyl)-5,5-dimethylimidazolidine-2,4-dione] | 84.9 | 3.86 | 80.7 | 157 | ≤ 4.6 | 151 | – | – | – | – | – | – | – |
| CC1(C)C(=O)N(Cc2nc(-c3ccc(Oc4ccccc4S(C)(=O)=O)c(C(F)(F)F)c3)no2)C(=O)N1CCN1CCOCC1 [Compound 55, 5,5-dimethyl-3-((3-(4-(2-(methylsulfonyl)phenoxy)-3-(trifluoromethyl)phenyl)-1,2,4-oxadiazol-5-yl)methyl)-1-(2-morpholinoethyl)imidazolidine-2,4-dione] | 91.6 | 4.43 | 87.1 | 161 | ≤ 4.6 | 154 | – | – | – | – | – | – | – |
| O=C1N(Cc2nc(-c3ccc(Oc4ccccc4S(=O)(=O)CC4CCCO4)c(C(F)(F)F)c3)no2)C(=O)C2(CCOCC2)N1CCN1CCOCC1 (stereo not drawn) [Compound 56, 1-(2-morpholinoethyl)-3-((3-(4-(2-(((tetrahydrofuran-2-yl)methyl)sulfonyl)phenoxy)-3-(trifluoromethyl)phenyl)-1,2,4-oxadiazol-5-yl)methyl)-8-oxa-1,3-diazaspiro[4.5]decane-2,4-dione] | 76.6 | 1.01 | 72.8 | 187 | ≤ 4.6 | 180 | – | – | – | – | – | – | – |
| COCCS(=O)(=O)c1ccccc1Oc1ccc(-c2noc(CN3C(=O)N(CCN4CCOCC4)C(C)(C)C3=O)n2)cc1C(F)(F)F [Compound 58, 3-((3-(4-(2-((2-methoxyethyl)sulfonyl)phenoxy)-3-(trifluoromethyl)phenyl)-1,2,4-oxadiazol-5-yl)methyl)-5,5-dimethyl-1-(2-morpholinoethyl)imidazolidine-2,4-dione] | 107 | 0.281 | 102 | 167 | ≤ 4.6 | 161 | – | – | – | – | – | – | – |
| COCCN(CCOC)CCS(=O)(=O)c1ccccc1Oc1ccc(-c2noc(CN3C(=O)N(CCN4CCOCC4)C(C)(C)C3=O)n2)cc1C(F)(F)F [Compound 61, 3-((3-(4-(2-((2-(bis(2-methoxyethyl)amino)ethyl)sulfonyl)phenoxy)-3-(trifluoromethyl)phenyl)-1,2,4-oxadiazol-5-yl)methyl)-5,5-dimethyl-1-(2-morpholinoethyl)imidazolidine-2,4-dione] | 78.9 | 9.1 | 75 | 178 | ≤ 4.6 | 171 | – | – | – | – | – | – | – |
| CC(COc1ccc(-c2noc(CN3C(=O)N(CCC4CCOCC4)C4(CCN(C5CCC5)CC4)C3=O)n2)cc1C(F)(F)F)(C(F)(F)F)C(F)(F)F [Compound 63, 8-cyclobutyl-1-(2-(tetrahydro-2H-pyran-4-yl)ethyl)-3-((3-(4-(3,3,3-trifluoro-2-methyl-2-(trifluoromethyl)propoxy)-3-(trifluoromethyl)phenyl)-1,2,4-oxadiazol-5-yl)methyl)-1,3,8-triazaspiro[4.5]decane-2,4-dione] | – | – | – | – | – | – | 74.6 | 0.217 | 78.4 | 72.2 | ≤ 4.6 | 75.2 | – |
| CC1(C)C(=O)N(Cc2nc(-c3ccc(Oc4ccccc4S(=O)(=O)CC4CCCO4)c(C(F)(F)F)c3)no2)C(=O)N1CCN1CCOCC1 (stereo not drawn) [Compound 64, 5,5-dimethyl-1-(2-morpholinoethyl)-3-((3-(4-(2-(((tetrahydrofuran-2-yl)methyl)sulfonyl)phenoxy)-3-(trifluoromethyl)phenyl)-1,2,4-oxadiazol-5-yl)methyl)imidazolidine-2,4-dione] | – | – | – | – | – | – | 97.9 | 0.063 | 103 | 154 | ≤ 4.6 | 160 | – |
| CC1(C)C(=O)N(Cc2nc(-c3ccc(Oc4cnccc4C(F)(F)F)c(C(F)(F)F)c3)no2)C(=O)N1CCN1CCOCC1 [Compound 65, 5,5-dimethyl-1-(2-morpholinoethyl)-3-((3-(3-(trifluoromethyl)-4-((4-(trifluoromethyl)pyridin-3-yl)oxy)phenyl)-1,2,4-oxadiazol-5-yl)methyl)imidazolidine-2,4-dione] | 69.8 | 15.1 | 66.4 | 108 | ≤ 4.6 | 104 | – | – | – | – | – | – | – |
| CC1(C)C(=O)N(Cc2nc(-c3ccc(OCCC(F)(F)F)c(C(F)(F)F)c3)no2)C(=O)N1CCN1CCOCC1 [Compound 66, 5,5-dimethyl-1-(2-morpholinoethyl)-3-((3-(3-(trifluoromethyl)-4-(3,3,3-trifluoropropoxy)phenyl)-1,2,4-oxadiazol-5-yl)methyl)imidazolidine-2,4-dione] | 82.3 | 187 | 78.2 | 99 | 21.1 | 95.1 | – | – | – | – | – | – | – |
| CC(C)CS(=O)(=O)c1ccccc1Oc1ccc(-c2noc(CN3C(=O)N(CCN4CCOCC4)C4(CCN(C(=O)CCCCC(=O)O)CC4)C3=O)n2)cc1C(F)(F)F [Compound 67, 6-(3-((3-(4-(2-(isobutylsulfonyl)phenoxy)-3-(trifluoromethyl)phenyl)-1,2,4-oxadiazol-5-yl)methyl)-1-(2-morpholinoethyl)-2,4-dioxo-1,3,8-triazaspiro[4.5]decan-8-yl)-6-oxohexanoic acid] | 88.9 | 3.94 | 84.5 | 103 | ≤ 4.6 | 99.1 | – | – | – | – | – | – | – |
| CC1(C)NC(=O)N(Cc2nc(-c3ccc(Oc4ccccc4C(F)(F)F)c(C(F)(F)F)c3)no2)C1=O [Compound 71, 5,5-dimethyl-3-((3-(3-(trifluoromethyl)-4-(2-(trifluoromethyl)phenoxy)phenyl)-1,2,4-oxadiazol-5-yl)methyl)imidazolidine-2,4-dione] | 68.7 | – | 65.3 | 51.9 | > 10000 | 49.8 | – | – | – | – | – | – | 139 |
